Experimental data from ChEMBL document CHEMBL3576842, “Selenium-containing chrysin and quercetin derivatives: attractive scaffolds for cancer therapy” (J Med Chem, 2015).
Calls of active or inactive are those of the source. The calls are words filed in the database; no cut-off is given here.

Tests used:
[1] = system: 2008; assay: Cytotoxicity against human 2008 cells assessed as cell growth inhibition after 72 hrs by MTT assay; type: functional, cell-based; settings: Homo sapiens, 2008, 72 h
[2] = Cytotoxicity against human C13 cells assessed as cell growth inhibition after 72 hrs by MTT assay; type: functional, cell-based; settings: C13, 72 h
[3] = system: A-431; assay: Cytotoxicity against human A431 cells assessed as cell growth inhibition after 72 hrs by MTT assay; type: functional, cell-based; settings: A-431, 72 h
[4] = Cytotoxicity against human BxPC3 cells assessed as cell growth inhibition after 72 hrs by MTT assay; type: functional, cell-based; settings: BXPC-3, 72 h
[5] = system: NCI/ADR-RES; assay: Selectivity index, ratio of IC50 for HEK293 cells to IC50 for human MCF7/ADR cells; type: functional
[6] = system: C13; assay: Resistance factor, ratio of IC50 for cisplatin-resistant human C13 cells to IC50 for human 2008 cells; type: functional
[7] = system: HEK293; assay: Selectivity index, ratio of IC50 for HEK293 cells to IC50 for human A375 cells; type: functional
[8] = Cytotoxicity against human MCF7/ADR cells assessed as cell growth inhibition after 72 hrs by MTT assay; type: functional, cell-based; settings: NCI/ADR-RES
[9] = system: HEK293; assay: Selectivity index, ratio of IC50 for HEK293 cells to IC50 for cisplatin-resistant human A431 cells; type: functional
[10] = system: HEK293; assay: Selectivity index, ratio of IC50 for HEK293 cells to IC50 for human HCT15 cells; type: functional
[11] = system: HEK293; assay: Selectivity index, ratio of IC50 for HEK293 cells to IC50 for human A431 cells; type: functional
[12] = system: MCF7; assay: Cytotoxicity against human MCF7 cells assessed as cell growth inhibition after 72 hrs by MTT assay; type: functional, cell-based; settings: MCF7, 72 h
[13] = system: HEK293; assay: Cytotoxicity against HEK293 cells assessed as cell growth inhibition after 72 hrs by MTT assay; type: cell-based; settings: Homo sapiens, HEK293, 72 h
[14] = system: HEK293; assay: Selectivity index, ratio of IC50 for HEK293 cells to IC50 for human BxPC3 cells; type: functional
[15] = system: HEK293; assay: Selectivity index, ratio of IC50 for HEK293 cells to IC50 for human 2008 cells; type: functional
[16] = system: A-431; assay: Resistance factor, ratio of IC50 for cisplatin-resistant human A431 cells to IC50 for human A431 cells; type: functional
[17] = system: A-375; assay: Cytotoxicity against human A375 cells assessed as cell growth inhibition after 72 hrs by MTT assay; type: functional, cell-based; settings: A-375, 72 h
[18] = system: A-431; assay: Cytotoxicity against cisplatin-resistant human A431 cells assessed as cell growth inhibition after 72 hrs by MTT assay; type: functional, cell-based; settings: A-431, 72 h
[19] = system: C13; assay: Selectivity index, ratio of IC50 for HEK293 cells to IC50 for human C13 cells; type: functional
[20] = Antioxidant activity assessed as DPPH radical scavenging activity after 1 hr; type: physicochemical
[21] = system: NCI/ADR-RES; assay: Resistance factor, ratio of IC50 for human MCF7/ADR cells to IC50 for human MCF7 cells; type: functional
[22] = system: HCT-15; assay: Cytotoxicity against human HCT15 cells assessed as cell growth inhibition after 72 hrs by MTT assay; type: functional, cell-based; settings: HCT-15, 72 h
[23] = system: HEK293; assay: Selectivity index, ratio of IC50 for HEK293 cells to IC50 for human MCF7 cells; type: functional
[24] = Antioxidant activity assessed as DPPH radical scavenging activity at 1 mM after 1 hr; type: physicochemical; settings: 1000 µM
[25] = system: MCF7; assay: Induction of apoptosis in human MCF7 cells assessed as brightly stained nuclei, chromatin condensation and fragmentation at IC50 after 48 hrs by Hoechst 33258/PI fluorescent staining analysis; type: functional, cell-based
[26] = system: MCF7; assay: Decrease in total glutathione level in human MCF7 cells at IC50 after 48 hrs by spectrophotometric analysis; type: functional
[27] = system: MCF7; assay: Effect on glutathione peroxidase activity in human MCF7 cells using tert-butyl hydroperoxide and GSH as substrate at 1.25 to 20 uM after 24 hrs by spectrophotometric analysis; type: cell-based
[28] = system: MCF7; assay: Induction of apoptosis in human MCF7 cells assessed as decrease in mitochondrial membrane potential at IC50 after 48 hrs by flow cytometry; type: functional
[29] = system: MCF7; assay: Anticlonogenic activity against human MCF7 cells assessed as inhibition of clonogenic expansion after 6 hrs; type: functional, cell-based
[30] = molecular target: T1, Glutathione reductase, mitochondrial (Homo sapiens) (UniProt P00390); assay: Effect on glutathione reductase activity in human MCF7 cells using GSSG as substrate at 1.25 to 20 uM after 24 hrs by spectrophotometric analysis; type: cell-based
T1 sequence (whole entry): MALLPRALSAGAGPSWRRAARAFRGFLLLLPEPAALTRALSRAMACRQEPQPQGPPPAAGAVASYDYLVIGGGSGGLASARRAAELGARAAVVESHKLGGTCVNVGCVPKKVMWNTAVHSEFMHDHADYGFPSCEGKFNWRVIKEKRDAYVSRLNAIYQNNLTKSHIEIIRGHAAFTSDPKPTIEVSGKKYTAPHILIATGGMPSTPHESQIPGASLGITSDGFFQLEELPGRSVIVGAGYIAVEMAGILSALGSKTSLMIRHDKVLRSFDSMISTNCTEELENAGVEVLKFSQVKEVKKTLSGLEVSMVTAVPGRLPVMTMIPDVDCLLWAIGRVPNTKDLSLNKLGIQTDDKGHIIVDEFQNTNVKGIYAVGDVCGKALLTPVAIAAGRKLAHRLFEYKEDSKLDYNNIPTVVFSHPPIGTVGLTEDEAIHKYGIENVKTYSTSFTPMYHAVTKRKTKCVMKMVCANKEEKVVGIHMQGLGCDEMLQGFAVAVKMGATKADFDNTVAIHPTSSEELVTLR

[31] = system: MCF7; assay: Drug uptake in human MCF7 cells assessed as intracellular Se accumulation at 12.5 to 25 uM after 12 to 24 hrs by GF-AAS analysis; type: ADME, cell-based; settings: mcf7, 25 µM
[32] = system: MCF7; assay: Decrease in total sulfhydryl gropus in human MCF7 cells at IC50 after 24 hrs by DTNB reduction assay; type: functional
[33] = molecular target: T2, Thioredoxin reductase (Homo sapiens) (UniProt Q16881+Q9NNW7+Q86VQ6); assay: Inhibition of thioredoxin reductase activity in human MCF7 cells after 24 hrs by DTNB reduction assay; type: cell-based
[34] = molecular target: T2, Thioredoxin reductase (Homo sapiens); assay: Increase in thioredoxin reductase activity in HEK293 cells at 0.0625 to 0.625 uM after 24 hrs by DTNB reduction assay; type: cell-based; parameters: scale not given: the % may be the effect or the level left
[35] = Antioxidant activity assessed as glutathione peroxidase-like activity measured as time required to oxidize dithiothretol by 50% after addition of H2O2 at 3.24 umol; type: physicochemical
[36] = system: MCF7; assay: Induction of apoptosis in human MCF7 cells assessed as caspase-3 activation using DEVD-AFC as substrate at IC50 after 48 hrs by spectrofluorimeter analysis; type: functional

| SMILES | IC50 [1] [µM] | IC50 [2] [µM] | IC50 [3] [µM] | IC50 [4] [µM] | Ratio IC50 [5] | Ratio IC50 [7] | IC50 [8] [µM] | Ratio IC50 [9] | Ratio IC50 [10] | Ratio IC50 [11] | IC50 [12] [µM] | IC50 [13] [µM] | Ratio IC50 [14] | Ratio IC50 [15] | Ratio IC50 [16] | IC50 [17] [µM] | IC50 [18] [µM] | Ratio IC50 [19] | IC50 [22] [µM] | Ratio IC50 [23] | also measured |
| --- | --- | --- | --- | --- | --- | --- | --- | --- | --- | --- | --- | --- | --- | --- | --- | --- | --- | --- | --- | --- | --- |
| Oc1cc(O)c2c(=S)cc(-c3ccccc3)oc2c1 | 41.1 | 58.5 | 66.3 | 64.4 | 1.2 | 1.2 | 72.3 | 1.2 | 1.2 | 1.2 | 70.4 | 68.3 | 1.2 | 1.2 | 1.6 | 36.5 | 98.4 | 1.2 | 56.6 | 1.2 | Ratio IC50 [6]: 1.4; IC50 [20]: 4600 µM; Ratio IC50 [21]: 1 |
| COc1cc(O)c2c(=O)c(OC)c(-c3ccc(OC)c(OC)c3)oc2c1 [RETUSIN] | > 100 | > 100 | 57.5 | > 100 | 1.6 | 1.6 | > 100 | 1.6 | 1.6 | 1.6 | > 100 | 142 | 1.6 | 1.6 | 1.4 | 69.7 | 82.2 | 1.6 | 68.1 | 1.6 | Activity [24]: 2.5% |
| COc1cc(O)c2c(=[Se])c(OC)c(-c3ccc(OC)c(OC)c3)oc2c1 | 2.09 | 2.29 | 3.11 | 2.42 | 5.1 | 5.1 | 3.35 | 5.1 | 5.1 | 5.1 | 3.08 | 17.3 | 5.1 | 5.1 | 1.2 | 2.21 | 3.78 | 5.1 | 2.23 | 5.1 | Activity [25]: Active; inhibition [26]: Active; Activity [27]: inactive; Activity [24]: 90.4%; fold change (FC) [28]: 4; inhibition [29]: Active; Activity [30]: inactive; Drug uptake [31]: Active; inhibition (INH) [32]: 60%; IC50 [20]: 74 µM; inhibition [33]: Active; Ratio IC50 [21]: 1.1; Activity [34]: 35%; Time [35]: 4.34 min; fold change (FC) [36]: 4 |
| O=c1cc(-c2ccccc2)oc2cc(O)cc(O)c12 [CHRYSIN] | 28.6 | 49.7 | 29.4 | 54.3 | 1.9 | 1.9 | 51 | 1.9 | 1.9 | 1.9 | 50.3 | 77.5 | 1.9 | 1.9 | 2 | 33.2 | 60.1 | 1.9 | 54.4 | 1.9 | Ratio IC50 [6]: 1.7; Ratio IC50 [21]: 1 |
| COc1cc(O)c2c(=S)c(OC)c(-c3ccc(OC)c(OC)c3)oc2c1 | – | – | – | – | – | – | – | – | – | – | – | – | – | – | – | – | – | – | – | – | Activity [24]: 18.3% |
| O=C1O[C@H]([C@@H](O)CO)C(O)=C1O [ASCORBIC ACID] | – | – | – | – | – | – | – | – | – | – | – | – | – | – | – | – | – | – | – | – | IC50 [20]: 6 µM |
| O=c1c(O)c(-c2ccc(O)c(O)c2)oc2cc(O)cc(O)c12 [QUERCETIN] | 21.2 | 37.6 | 23 | 24.1 | 2.5 | 2.5 | 22.2 | 2.5 | 2.5 | 2.5 | 20.9 | 54.6 | 2.5 | 2.5 | 1.5 | 25.1 | 34.4 | 2.5 | 16.4 | 2.5 | Activity [24]: 95.6%; Ratio IC50 [6]: 1.8; IC50 [20]: 28 µM; Ratio IC50 [21]: 1.1 |
